Reference: paper PMC9098913, “In vitro reconstitution of Escherichia coli divisome activation” (Nature Communications, 2022)

Experiment: Diffusion coefficient (Dcoeff) of FtsA from FRAP
Details: for Diffusion Coefficient, mean: Fig. 3j
Source text: We could also use the data from these bleaching experiments to quantify the membrane-binding kinetics and diffusion of membrane-bound proteins by analysing the change of the fluorescence profile during recovery.
Equimolar concentrations of Cy3- and Cy5-labelled FtsA, supplemented with 20% unlabelled FtsA were used to study FRET and FRAP. Five pre-bleach frames were acquired, followed by acceptor photobleaching of a rectangular ROI with 40% 641 nm laser power and a dwell size of 1 µs/pixel, 75% overlapping lines. The recovery of the signal or the increase in donor intensity were measured with either two frames or one frame per second.
Bleaching the acceptor dye leads to an increase in the donor intensity, which can be used to quantify the Foerster Resonance energy transfer (FRET)[48]. FRET efficiency was quantified with E%=Ipost/Ipost+Ipre⋅100 , where Ipost is the intensity of the […] and Ipre is the […]. […] To extract the contribution of both processes, we adjusted a routine recently published by Gerganova et al.[33]. In short, the code provides the contribution of both modes of recovery by analysing the shape of the fluorescence recovery profile. […] Contribution of diffusion leads to a change of the slope of the outer borders of the bleached region (S4h right). Thus, by measuring the change of the slope of the border recovery, diffusion and simple on/off binding can be distinguished. We developed “FRAPdiff”, a graphical user interface, which uses the original fit routine by David Rutkowski. It can be used directly on.tiff movies with annotated bleach regions as ImageJ ROIs. In addition, we added optional bleach correction, user selectable projection axis (x or y), and optional mirroring of the recovery profiles, if bleaching was not symmetric. The original fit routine for estimating the recovery and diffusion dynamics can be found at https://github.com/davidmrutkowski/1DReflectingDiffusion. FRAPdiff is available at 10.5281/zenodo.6400639[49] under the GPLv3 open-source license.

FtsA WT: wild-type E. coli actin-homologue FtsA, membrane anchor of FtsZ
Diffusion Coefficient, mean (0.1 µM FtsA + N): 1.61E-02 µm2/s | Diffusion Coefficient, mean (0.1 µM FtsA + Z&N): 1.18E-02 µm2/s | Diffusion Coefficient, mean (0.1 µM FtsA + Z): 1.69E-02 µm2/s | Diffusion Coefficient (0.1µM FtsA alone, Mean, n=18 (WT), 6 (R286W)): 0.0268 | Diffusion Coefficient, mean (0.1 µM FtsA alone): 2.68E-02 µm2/s | Diffusion Coefficient (0.1µM FtsA alone, replicate Exp.1): 5.58E-02 | Diffusion Coefficient (0.1µM FtsA alone, replicate Exp.10): 2.60E-03 | Diffusion Coefficient (0.1µM FtsA alone, replicate Exp.11): 5.85E-03 | Diffusion Coefficient (0.1µM FtsA alone, replicate Exp.12): 4.68E-03 | Diffusion Coefficient (0.1µM FtsA alone, replicate Exp.13): 4.29E-02 | Diffusion Coefficient (0.1µM FtsA alone, replicate Exp.14): 3.12E-02 | Diffusion Coefficient (0.1µM FtsA alone, replicate Exp.15): 2.09E-02 | Diffusion Coefficient (0.1µM FtsA alone, replicate Exp.16): 1.45E-02 | Diffusion Coefficient (0.1µM FtsA alone, replicate Exp.17): 4.66E-02 | Diffusion Coefficient (0.1µM FtsA alone, replicate Exp.18): 2.25E-02 | Diffusion Coefficient (0.1µM FtsA alone, replicate Exp.2): 3.42E-03 | Diffusion Coefficient (0.1µM FtsA alone, replicate Exp.3): 1.87E-02 | Diffusion Coefficient (0.1µM FtsA alone, replicate Exp.4): 5.22E-02 | Diffusion Coefficient (0.1µM FtsA alone, replicate Exp.5): 2.45E-02 | Diffusion Coefficient (0.1µM FtsA alone, replicate Exp.6): 4.34E-02 | Diffusion Coefficient (0.1µM FtsA alone, replicate Exp.7): 4.83E-02 | Diffusion Coefficient (0.1µM FtsA alone, replicate Exp.8): 3.63E-02 | Diffusion Coefficient (0.1µM FtsA alone, replicate Exp.9): 8.38E-03 | Diffusion Coefficient (0.1µM, + FtsN&Z, Mean, n=5 (WT), 3 (R286W)): 0.0118 | Diffusion Coefficient (0.1µM, + FtsN&Z, replicate Exp.1): 3.37E-03 | Diffusion Coefficient (0.1µM, + FtsN&Z, replicate Exp.2): 5.52E-03 | Diffusion Coefficient (0.1µM, + FtsN&Z, replicate Exp.3): 9.34E-03 | Diffusion Coefficient (0.1µM, + FtsN&Z, replicate Exp.4): 2.03E-02 | Diffusion Coefficient (0.1µM, + FtsN&Z, replicate Exp.5): 2.02E-02 | Diffusion Coefficient (0.1µM, + FtsN, Mean, n=5 (WT), 3 (R286W)): 0.0161 | Diffusion Coefficient (0.1µM, + FtsN, replicate Exp.1): 2.03E-02 | Diffusion Coefficient (0.1µM, + FtsN, replicate Exp.2): 6.39E-04 | Diffusion Coefficient (0.1µM, + FtsN, replicate Exp.3): 1.18E-02 | Diffusion Coefficient (0.1µM, + FtsN, replicate Exp.4): 1.64E-02 | Diffusion Coefficient (0.1µM, + FtsN, replicate Exp.5): 3.14E-02 | Diffusion Coefficient (0.1µM, + FtsZ, Mean, n=8 (WT), 4 (R286W)): 0.0169 | Diffusion Coefficient (0.1µM, + FtsZ, replicate Exp.1): 1.01E-02 | Diffusion Coefficient (0.1µM, + FtsZ, replicate Exp.2): 2.79E-03 | Diffusion Coefficient (0.1µM, + FtsZ, replicate Exp.3): 1.71E-02 | Diffusion Coefficient (0.1µM, + FtsZ, replicate Exp.4): 3.53E-02 | Diffusion Coefficient (0.1µM, + FtsZ, replicate Exp.5): 2.97E-02 | Diffusion Coefficient (0.1µM, + FtsZ, replicate Exp.6): 3.44E-03 | Diffusion Coefficient (0.1µM, + FtsZ, replicate Exp.7): 2.52E-02 | Diffusion Coefficient (0.1µM, + FtsZ, replicate Exp.8): 1.14E-02 | Diffusion Coefficient, mean (0.2 µM FtsA + N): 1.32E-02 µm2/s | Diffusion Coefficient, mean (0.2 µM FtsA + Z&N): 7.76E-03 µm2/s | Diffusion Coefficient, mean (0.2 µM FtsA + Z): 8.12E-03 µm2/s | Diffusion Coefficient (0.2µM FtsA alone, Mean, n=24 (WT), 6 (R286W)): 0.0177 | Diffusion Coefficient, mean (0.2 µM FtsA alone): 1.77E-02 µm2/s | Diffusion Coefficient (0.2µM FtsA alone, replicate Exp.1): 1.00E-02 | Diffusion Coefficient (0.2µM FtsA alone, replicate Exp.10): 2.11E-07 | Diffusion Coefficient (0.2µM FtsA alone, replicate Exp.11): 2.08E-02 | Diffusion Coefficient (0.2µM FtsA alone, replicate Exp.12): 4.11E-02 | Diffusion Coefficient (0.2µM FtsA alone, replicate Exp.13): 2.52E-02 | Diffusion Coefficient (0.2µM FtsA alone, replicate Exp.14): 2.77E-02 | Diffusion Coefficient (0.2µM FtsA alone, replicate Exp.15): 1.77E-05 | Diffusion Coefficient (0.2µM FtsA alone, replicate Exp.16): 1.11E-02 | Diffusion Coefficient (0.2µM FtsA alone, replicate Exp.17): 1.44E-03 | Diffusion Coefficient (0.2µM FtsA alone, replicate Exp.18): 2.14E-02 | Diffusion Coefficient (0.2µM FtsA alone, replicate Exp.19): 1.18E-02 | Diffusion Coefficient (0.2µM FtsA alone, replicate Exp.2): 4.63E-02 | Diffusion Coefficient (0.2µM FtsA alone, replicate Exp.20): 1.47E-02 | Diffusion Coefficient (0.2µM FtsA alone, replicate Exp.21): 5.71E-03 | Diffusion Coefficient (0.2µM FtsA alone, replicate Exp.22): 9.23E-03 | Diffusion Coefficient (0.2µM FtsA alone, replicate Exp.23): 4.39E-06 | Diffusion Coefficient (0.2µM FtsA alone, replicate Exp.24): 1.05E-03 | Diffusion Coefficient (0.2µM FtsA alone, replicate Exp.3): 3.82E-02 | Diffusion Coefficient (0.2µM FtsA alone, replicate Exp.4): 2.69E-04 | Diffusion Coefficient (0.2µM FtsA alone, replicate Exp.5): 3.65E-02 | Diffusion Coefficient (0.2µM FtsA alone, replicate Exp.6): 2.63E-02 | Diffusion Coefficient (0.2µM FtsA alone, replicate Exp.7): 1.83E-02 | Diffusion Coefficient (0.2µM FtsA alone, replicate Exp.8): 5.09E-02 | Diffusion Coefficient (0.2µM FtsA alone, replicate Exp.9): 5.70E-03 | Diffusion Coefficient (0.2µM, + FtsN&Z, Mean, n=8 (WT), 6 (R286W)): 0.0078 | Diffusion Coefficient (0.2µM, + FtsN&Z, replicate Exp.1): 1.04E-02 | Diffusion Coefficient (0.2µM, + FtsN&Z, replicate Exp.2): 2.82E-03 | Diffusion Coefficient (0.2µM, + FtsN&Z, replicate Exp.3): 5.82E-03 | Diffusion Coefficient (0.2µM, + FtsN&Z, replicate Exp.4): 1.62E-02 | Diffusion Coefficient (0.2µM, + FtsN&Z, replicate Exp.5): 5.88E-03 | Diffusion Coefficient (0.2µM, + FtsN&Z, replicate Exp.6): 3.75E-03 | Diffusion Coefficient (0.2µM, + FtsN&Z, replicate Exp.7): 5.36E-03 | Diffusion Coefficient (0.2µM, + FtsN&Z, replicate Exp.8): 1.18E-02 | Diffusion Coefficient (0.2µM, + FtsN, Mean, n=7 (WT), 4 (R286W)): 0.0132 | Diffusion Coefficient (0.2µM, + FtsN, replicate Exp.1): 1.41E-02 | Diffusion Coefficient (0.2µM, + FtsN, replicate Exp.2): 1.35E-02 | Diffusion Coefficient (0.2µM, + FtsN, replicate Exp.3): 8.81E-03 | Diffusion Coefficient (0.2µM, + FtsN, replicate Exp.4): 1.88E-02 | Diffusion Coefficient (0.2µM, + FtsN, replicate Exp.5): 1.36E-02 | Diffusion Coefficient (0.2µM, + FtsN, replicate Exp.6): 1.15E-02 | Diffusion Coefficient (0.2µM, + FtsN, replicate Exp.7): 1.21E-02 | Diffusion Coefficient (0.2µM, + FtsZ, Mean, n=7 (WT), 6 (R286W)): 0.0081 | Diffusion Coefficient (0.2µM, + FtsZ, replicate Exp.1): 8.42E-03 | Diffusion Coefficient (0.2µM, + FtsZ, replicate Exp.2): 4.10E-03 | Diffusion Coefficient (0.2µM, + FtsZ, replicate Exp.3): 4.88E-04
